Assay [1] has as its system Gαi:β-arrestin-2 complexes. Put plainly: Split luciferase Gαi-LgBiT:β-arrestin-2-smBiT complex formation in cells overexpressing V2R. The assay is classed as cell-based, human. The method, then: (§1) HEK293T cells seeded in 6-well plates were co-transfected with 500 ng of smBiT tagged β-arrestin-2, and either 250 ng of LgBiT tagged receptor or 2000 ng of untagged receptor and varying concentrations of LgBiT Gα protein expression vector (most experiments were conducted between 50-200 ng of Gα plasmid) or 2000 ng of mKO tagged β-arrestin-2 and 500 ng of smBiT tagged V2R using a calcium phosphate protocol. Twenty-four hours post-transfection, cells were plated onto clear bottom, white-walled 96-well plates at 50,000-100,000 cells/well in “BRET media”—clear minimum essential medium (GIBCO) supplemented with 2% FBS, 10 mM HEPES, 1×GLUTAMAX™, and 1× Anti-Anti (GIBCO). […] For luminescence split luciferase studies, plates were read with a BioTek SYNERGY™ Neo2 plate reader set at 37° C. with a 485 nm emission filter. […] For split luciferase luminescence experiments, plates were read both before and after ligand treatment to calculate Δnet change in luminescence and subsequently normalized to vehicle treatment. For complex BRET experiments, plates were read on a Berthold Mithras LB940 using pre-warmed media and instrument at 37° C. using a standard Rluc emissions filter (480 nm) with a custom mKO 542 nm long-pass emission filter (Chroma Technology Co., Bellows Falls, Vt.). The BRET ratio was calculated by dividing the mKO signal by the luciferase signal.

Assay [2] concerns the target T1, Angiotensin II type 1 receptor (AT1R) (Homo sapiens, UniProt P30556).
T1 sequence (P30556 1-359): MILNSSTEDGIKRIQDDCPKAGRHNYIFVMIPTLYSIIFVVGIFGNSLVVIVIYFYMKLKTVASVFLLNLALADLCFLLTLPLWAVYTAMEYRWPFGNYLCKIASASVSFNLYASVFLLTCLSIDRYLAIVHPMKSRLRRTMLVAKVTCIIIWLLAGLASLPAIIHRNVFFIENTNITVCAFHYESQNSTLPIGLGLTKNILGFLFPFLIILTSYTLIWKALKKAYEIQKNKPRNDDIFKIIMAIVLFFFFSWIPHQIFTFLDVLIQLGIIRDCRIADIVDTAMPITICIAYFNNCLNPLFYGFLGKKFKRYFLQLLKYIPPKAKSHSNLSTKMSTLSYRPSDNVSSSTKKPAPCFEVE
Put plainly: TGF-α shedding assay of canonical G protein signaling at AT1R. The assay is classed as cell-based. Conditions: four Gα-family proteins tested.

The test system of another assay is ERK1/2 phosphorylation. Put plainly: Phospho-ERK/total ERK immunoblot in 'triple G' HEK 293 cells overexpressing V2R. Type of assay: cell-based, human. Conditions: agonist treated. The procedure:
Cells were serum starved for at least four hours, stimulated with the indicated ligand, subsequently washed 1× with ice-cold PBS, lysed in ice-cold RIPA buffer containing phosphatase and protease inhibitors (Phos-STOP (Roche), Complete EDTA free (Sigma)) and rotated for forty-five minutes, and cleared of insoluble debris by centrifugation at >12,000×g (4° C., 15 minutes), after which the supernatant was collected. Protein was resolved on SDS-10% polyacrylamide gels, transferred to nitrocellulose membranes, and immunoblotted with the indicated primary antibody overnight (4° C.). Phospho-ERK (Cell Signaling Technology, #9106) and total ERK (Millipore #06-182) were used to assess ERK activation. A1-CT antibody that recognizes both isoforms of β-arrestin was utilized, with protein loading assessed by alpha-tubulin (Sigma #T6074). Galpha i-1 (13533, Santa Cruz Biotechnology), Galpha q/11/14 (365906, Santa Cruz Biotechnology), Galpha 12 (515445, Santa Cruz Biotechnology), Galpha 13 (293424, Santa Cruz Biotechnology), Galpha s/olf (55545, Santa Cruz Biotechnology) antibodies were used to verify ‘Δ3G’ HEK 293 cells.
Horseradish peroxidase-conjugated polyclonal mouse anti-rabbit-IgG or anti-mouse-IgG were used as secondary antibodies. […] For quantification, phospho-protein signal was normalized to total protein signal using Image Lab (Bio-Rad) within the same blot.
On the technique in general: A western blot detects proteins with antibodies after separation by electrophoresis.

For assay [3], the system named is human pulmonary arterial smooth muscle cells (PASMCs). Put plainly: Wound-healing migration assay, primary human cells. Type of assay: cell-based. The method, then: Human pulmonary arterial smooth muscle cells (PASMCs) were isolated from human lungs from a de-identified health donor (International Institute for the Advancement of Medicine, Edison, N.J.) with Institutional Review Board approval. Human PASMCs were seeded into 24-well plates at a density of 1.5×10^4 cells per well in Human Smooth Muscle Cell Basal Medium supplemented with Human SMC Growth Supplement (Cell Application, Inc.). At 30% confluency, cells were transfected with 50 ng of control or β-arrestin-1 and β-arrestin-2 ON […]™ siRNA pools (Dharmacon, Inc.). When the cells reached 100% confluency, they were serum starved for 4 hours with 2 hrs of PTX (200 ng/mL) treatment. Scratches were made using small pipette tips. Cells were washed using DPBS and stimulated with basal smooth muscle cell medium containing 1 μM Angiotensin-II (Millipore Sigma) or 10 μM TRV120023 (Genscript USA Inc.). The wound closure was monitored using live-cell station Zeiss Axio Observer microscope (Carl Zeiss, Thornwood, N.Y.). The images were captured in real-time at 0 hour and for every hour until 16 hours. The initial edges of the scratch at 0 hour time point were marked and migrated distance 12-16 hrs afterwards was measured using METAMORPH® Premier software (Molecular Devices, San Jose, Calif.) at the Duke Light Microscopy Core Facility (Durham, N.C.).

Assay [4] deals with HEK 293 cells stably expressing AT1R. Put plainly: Wound-healing migration assay, immortalized cells. The assay is classed as cell-based, human. The following applies: PTX pretreatment 200 ng/mL. The method, then:
HEK 293T cells stably expressing the AT1R were utilized. Briefly, 70 μl of cell suspension at a concentration of 5×10^5 cells per mL was applied into each well of silicone inserts (Ibidi, Martinsried, Germany) on 24 well plate, and after 24 hrs incubation, the inserts were removed to create a wound field. The cells were incubated additionally for 12 hrs with 1 μM of TRV120023 and visualized with a Zeiss Axio Observer microscope (Carl Zeiss, Thornwood, N.Y.). Wound healing was then analyzed using ImageJ (NIH, Bethesda, Md.) wound healing tool macros.

Assay [5] addresses T2, V2R:β-arrestin-2 complexes (Homo sapiens, UniProt P30518).
T2 construct: 3xHA (N); expressed in transfected cells; host or cells: HEK293T
Put plainly: Split luciferase V2R-LgBiT:β-arrestin-2-smBiT association. Type of assay: cell-based. Conditions: V2R or β2AR. The procedure: as §1

In the case of `CCOc1ccc2c(c1)C1(CCC(OCCN3CCOCC3)CC1)C(=O)N2S(=O)(=O)c1ccc(C(=O)NC(C)(C)C)cc1OC` (stereo not shown) [SR121463], the “Gαi:β-arrestin complex formation after antagonist pretreatment” value in assay [1] (HEK 293 cells overexpressing V2R, pretreatment 30 min, 10 uM) is given as “prevented formation of Gαi:β-arrestin complexes”.
On to Angiotensin II [AngII], for which the “Canonical G protein signaling at AT1R” value in assay [2] is “canonically signals through both Gαq and Gαi”.
For the molecule pertussis toxin, the “ERK phosphorylation after pertussis toxin pretreatment” value in the assay on ERK1/2 phosphorylation is “abrogated, but did not eliminate, ERK phosphorylation”. In addition, in assay [1] (pertussis toxin pretreatment), the “Sensitivity of the Gαi:β-arrestin interaction to pertussis toxin” value was “partially sensitive to pertussis toxin”. Also, the “Pertussis toxin sensitivity of migration towards TRV120023” value in assay [3] is recorded as “pertussis toxin sensitive”. Further, the “Reduction of TRV120023-mediated migration by pertussis toxin pretreatment” value in assay [4] is listed as approximately 50%. In addition, the “Effect of pertussis toxin pretreatment on β-arrestin recruitment to receptor” value in assay [5] was “did not affect β-arrestin recruitment to either the V2R or β2AR”.
